# Measurements reported in PubChem BioAssay AID651717 (Broad Institute, 2012).
# System: mESC Bmi1-luciferase reporter, firefly/renilla ratio, 24 h
# Assay: Bmi1-luciferase reporter activators in mESC, dose response, esBAF inhibitor project, mouse embryonic stem cells, cherry-pick (AID 651717);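 also: luciferase knocked into Bmi1 locus with EF-1a renilla as cell number control; rising ratio signals esBAF inhibition which derepresses Bmi1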
row,SMILES,AC40 [µM]
1,COc1cc2ccccc2cc1C(=O)Nc1ccc(Br)cn1,0.489
2,COc1ccc(CNC(=O)c2ccc(-c3ccccc3)cc2)cc1,6.89
3,Cn1c(SCc2c(F)cccc2Cl)nnc1-c1cccs1,11.1
4,O=C(NC1CCCCC1)c1ccc2ccccc2c1O,1.27
5,O=C(Nc1ccc2oc(-c3ccccc3)nc2c1)c1cccs1,1.58
6,Clc1ccc(/C=N/Nc2nc(Cl)nc3ccccc23)cc1,1.35
7,O=C(Nc1ccc(F)cc1)c1ccccc1F,5.97
8,Cc1ccc(-c2noc(-c3ccccc3C(=O)N3CCN(C)CC3)n2)cc1,11.5
9,c1ccc(Cn2cnc3ccccc32)cc1,0.984
10,Cc1cccc(N2C(=O)CC(N(O)c3ccccc3)C2=O)c1 (stereo not drawn),28.4
11,CC(=O)c1ccc(N2CCN(C(=O)c3ccc(Cn4c(=S)[nH]c5ccc(N6CCOCC6)cc5c4=O)cc3)CC2)cc1,24.8
12,COc1ccc(-c2csc(C(C)(O)c3ccccc3)n2)cc1 (stereo not drawn),14.9
13,O=C(Cc1ccc(Cl)cc1)c1ccccc1,1.84
14,Cc1cccc(NC(=O)C2C3CCCCC32)c1 (stereo not drawn),4.55
15,O=C(NC1CCCCC1)c1n[nH]c2c1CC(c1ccccc1)CC2 (stereo not drawn),0.996
16,CO[C@H]1CN(C)C(=O)c2cc(NC(=O)Nc3ccc4c(c3)OCO4)ccc2OC[C@H](C)NC[C@H]1C,3.29
17,CO[C@H]1CN(C)C(=O)c2cc(NC(=O)Nc3ccc4c(c3)OCO4)ccc2OC[C@@H](C)NC[C@H]1C,8.26
18,CCN(CC)S(=O)(=O)c1cccc(-c2cn3cc(C)ccc3n2)c1,4
19,Cc1cc(N2CCOCC2)nc2ccc(NC(=O)CCC(=O)N3CCN(c4ccccc4)CC3)cc12,11
20,O=C(Nc1ccc(Nc2ccccc2)cc1)Nc1ccccc1Cl,4.5
21,CCSc1ccc(/C(N)=N/OC(=O)c2cccs2)cn1,8.66

row,SMILES,AC40 [µM]
1,COc1cccc(/C=C2\SC(N3CCCC(C)C3)=NC2=O)c1OC (stereo not drawn),9.58
2,Clc1ccc(OCc2nc(-c3ccncc3)no2)cc1,10.8
3,COc1ccc2c(CN(C)Cc3ccccc3)cc(=O)oc2c1,0.841
4,Cc1ccc(NC(=O)O/N=C/c2ccc(F)cc2)cc1,8.83
5,CC(C)c1ccc(/C=N/NC(=O)CCNC(=O)c2ccccc2)cc1,22.8
6,COc1ccc(-c2nnn(Cc3ccccc3)n2)cc1,0.621
7,Nc1ccc2c(c1)Cc1cc(N)c(Cl)cc1-2,3.41
8,COc1ccc(CNC(=O)Nc2ccc(C)cc2)cc1,8.63
9,Cc1sc(NC(=O)C2CCCCC2C(=O)O)c(C(N)=O)c1-c1ccc(C(C)C)cc1 (stereo not drawn),6.81
10,NC(=O)c1sc2nc(-c3cccs3)ccc2c1N,2.75
11,CC(C)Nc1nc(Cl)nc(Nc2ccccc2)n1,5.89
12,Oc1[nH]c2ccccc2c1/C=N/c1nccs1,4.59
13,Cc1ccc(Cl)c2c(N=Nc3ccccc3)c(O)[nH]c12,0.93
14,Cn1c(SCc2ccccc2)nnc1-c1c[nH]c2ccccc12,17.9
15,OCc1c(OCc2cccc(F)c2)ccc2ccccc12,7.24
16,COc1ccc(-c2coc3cc(OC(C)=O)ccc3c2=S)cc1,0.794
17,Cn1c(C(=O)N/N=C/c2ccccc2)cc2ccccc21,2.84
18,COc1ccc(NC(=O)c2csc3c2CCCC3)cc1,0.459
19,Cc1ccc2c(CN(C)Cc3ccccc3)cc(=O)oc2c1,1.82
20,CCC(=O)Nc1nc(-c2ccc3c(c2)CC(C)N3S(C)(=O)=O)cs1 (stereo not drawn),7.5
21,COc1ccc(/C=N/OCc2ccccc2C#N)c(OC)c1,6.27

row,SMILES,AC40 [µM]
1,CC(C)C(=O)N1CCN(c2nc3ccc(Cl)cc3s2)CC1,3.33
2,N#CCc1ccc(OC(=O)c2cccnc2Cl)cc1,15.7
3,N#CCc1nc(CSc2nc3ccccc3o2)cs1,12.3
4,CC(=O)c1ccc(OCc2ccccc2)c(C)c1O,9.35
5,Cc1ccc(Nc2ncnc3sc(C)c(C)c23)cc1,3.76
6,COC(=O)c1c(-c2ccc(SC)cc2)sc2ccc(OC)cc12,0.613
7,CCCn1cnc2cc(NCc3ccccc3O)ccc21,17.2
8,Nc1nc(-c2ccc(Oc3ccccc3)cc2)cs1,7.87
9,O=C(NC1CCCCC1)N1CCc2ccccc2C1,6.76
10,O=C(OCc1ccccc1)N1CCC2CC1c1cc(/C=C/CCCSc3ncccn3)ccc12 (stereo not drawn),12.2
11,NC(=O)c1ccc(OCc2ccccc2)nc1,5.4
12,O=C(NNC(=O)c1cccc2ccccc12)c1ccc(Cl)cc1Cl,12.7
13,CN(c1cccc(NC(=O)c2ccc(C(C)(C)C)cc2)c1)S(C)(=O)=O,2.97
14,CCc1sc(C(=O)Nc2ncccc2C)cc1C,20.1
15,CCn1c(=N)n(CC(=O)c2cccc(OC)c2)c2ccccc21,8.58
16,O=C(NNC(=O)c1ccccc1OCc1ccccc1)c1ccccc1F,11.5
17,CC(=O)N(C)c1nc(-c2ccc(Cl)cc2)cs1,5.63
18,Nc1nc(SCc2ccccc2)sc1C(=O)N1CCCCC1,2.53
19,CCn1c(C)nc2cc(C(=O)NN=Cc3ccccc3OC(F)F)ccc21,1.96
20,NCC(=O)c1ccccc1,23
21,COc1ccc(-c2csc(C(O)c3ccccc3)n2)cn1 (stereo not drawn),9.65
